# Data published in patent US10227357B2, “Compounds and methods for kinase modulation, and indications therefor” (Plexxikon Inc., priority 2012, dated 2019).
# Molecular target: T1, c-kit kinase (Homo sapiens, UniProt P10721)
# T1 construct: The c-kit (or kinase domain thereof) is an active kinase in AlphaScreen; poly-Histidine tag (in-house protein only) (cleaved yes); host or cells: E. coli BL21(DE3)RIL, co-expressed with PTP1B
# Test: c-Kit biochemical assay, AlphaScreen, 10 μM ATP
# Conditions: c-kit biochemical inhibitory activity; read-out: Biochemical activity (IC50 μM) Kit
# Procedure: IC50 values are determined with respect to inhibition of c-Kit kinase activity, where inhibition of phosphorylation of a peptide substrate is measured as a function of compound concentration. Compounds to be tested were dissolved in DMSO to a concentration of 20 mM. These were diluted 30 μl into 120 μl of DMSO (4 mM) and 1 μl was added to an assay plate. These were then serially diluted 1:3 (50 μl to 100 μl DMSO) for a total of 8 points. Plates were prepared such that each kinase reaction is 20 μl in 1× kinase buffer (50 mM HEPES, pH 7.2, 5 mM MgCl2, 5 mM MnCl2, 0.01% NP-40, 0.2% BSA), 5% DMSO and 10 μM ATP. […] C-kit kinase was at 0.1 ng per sample. After incubation of the kinase reaction for 1 hour at room temperature, 5 μl of donor beads (Streptavidin coated beads (Perkin Elmer Life Science) final concentration 1 μg/ml) in stop buffer (50 mM EDTA in 1× kinase buffer) was added, the sample was mixed and incubated for 20 minutes at room temperature before adding 5 μl of acceptor beads (PY20 coated beads (Perkin Elmer Life Science) final concentration 1 μg/ml) in stop buffer. The samples were incubated for 60 minutes at room temperature and the signal per well was read on AlphaQuest reader. […] The signal vs. compound concentration was used to determine the IC50.
# Complementary DNA cloned from various human tissues were purchased from Invitrogen, and these were used as substrates in the PCR reactions. Specific custom synthetic oligonucleotide primers were designed to initiate the PCR product, and also to provide the appropriate restriction enzyme cleavage sites for ligation with the plasmids. The entire sequence encoding the enzyme was made through a gene synthesis procedure, using custom synthetic oligonucleotides covering the entire coding sequence (Invitrogen, see below).
# The plasmid used for ligation with the kinase-encoding inserts was derivative of pET (Novagen) for expression using E. coli. The Kit kinase was engineered to include a Histidine tag for purification using metal affinity chromatography. The kinase-encoding plasmid was engineered as bicistronic mRNA to co-express a second protein that modifies the kinase protein during its expression in the host cell. Protein tyrosine phosphatase 1B (PTP), was co-expressed for dephosphorylation of the phospho-Tyrosines.
# For protein expression, the plasmid containing the Kit gene was transformed into E. coli strains BL21(DE3)RIL and transformants selected for growth on LB agar plates containing appropriate antibiotics. Single colonies were grown overnight at 37° C. in 200 ml TB (Terrific broth) media. 16×1 L of fresh TB media in 2.8 L flasks were inoculated with 10 ml of overnight culture and grown with constant shaking at 37° C. Once cultures reached an absorbance of 1.0 at 600 nm, IPTG was added and cultures were allowed to grow for a further 12 to 18 hrs at temperatures ranging from 12-30° C. Cells were harvested by centrifugation and pellets frozen at […] until ready for lysis.
# For protein Purification; frozen E. coli cell pellets were resuspended in lysis buffer and lysed using standard mechanical methods. Protein was purified via poly-Histidine tags using immobilized metal affinity purification IMAC. The Kit kinase was purified using a 3 step purification process utilizing; IMAC, size exclusion chromatography and ion exchange chromatography. The poly-Histidine tag was removed using Thrombin (Calbiochem).
# T1 sequence (P10721 26-976): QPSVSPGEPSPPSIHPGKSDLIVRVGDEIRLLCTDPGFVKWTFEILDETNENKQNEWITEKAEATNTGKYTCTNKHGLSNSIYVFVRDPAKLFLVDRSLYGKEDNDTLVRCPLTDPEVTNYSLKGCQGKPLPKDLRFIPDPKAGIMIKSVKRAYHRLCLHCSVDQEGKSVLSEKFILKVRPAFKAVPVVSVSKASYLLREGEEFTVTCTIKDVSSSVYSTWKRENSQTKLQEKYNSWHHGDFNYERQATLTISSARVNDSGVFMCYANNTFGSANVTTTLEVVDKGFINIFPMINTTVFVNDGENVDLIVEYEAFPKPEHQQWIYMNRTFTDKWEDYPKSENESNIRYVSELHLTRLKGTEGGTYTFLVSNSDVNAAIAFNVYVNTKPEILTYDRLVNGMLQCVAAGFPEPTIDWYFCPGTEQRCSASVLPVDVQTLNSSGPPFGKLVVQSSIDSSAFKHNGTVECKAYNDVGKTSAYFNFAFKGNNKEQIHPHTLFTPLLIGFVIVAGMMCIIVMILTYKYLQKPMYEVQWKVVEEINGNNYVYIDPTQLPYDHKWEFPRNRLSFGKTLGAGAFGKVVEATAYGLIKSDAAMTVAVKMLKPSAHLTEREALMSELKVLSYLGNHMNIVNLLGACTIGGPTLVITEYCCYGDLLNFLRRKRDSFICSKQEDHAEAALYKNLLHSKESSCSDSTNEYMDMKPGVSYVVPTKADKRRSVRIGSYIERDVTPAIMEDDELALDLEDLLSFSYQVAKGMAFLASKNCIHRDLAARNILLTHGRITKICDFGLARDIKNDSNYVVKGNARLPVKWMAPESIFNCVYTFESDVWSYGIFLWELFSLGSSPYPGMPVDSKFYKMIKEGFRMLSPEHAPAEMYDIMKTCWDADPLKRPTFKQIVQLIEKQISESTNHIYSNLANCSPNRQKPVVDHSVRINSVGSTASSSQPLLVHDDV
row,Structure (SMILES),IC50 [µM]
1,"COc1ccc(S(=O)(=O)N2CCN(c3ncnc4[nH]ccc34)CC2)c(N)c1 [P-0190, 5-methoxy-2-[4-(7H-pyrrolo[2,3-d]pyrimidin-4-yl)piperazin-1-yl]sulfonyl-aniline]",10 to 200
2,"Cc1ccc(S(=O)(=O)Nc2ccc(-c3ncnc4cc(-c5cnn(C)c5)sc34)cc2)cc1 [P-0628, 4-methyl-N-[4-[6-(1-methylpyrazol-4-yl)thieno[3,2-d]pyrimidin-4-yl]phenyl]benzenesulfonamide]",0.0001 to 1
3,"Cn1cc(-c2cc3ncnc(N4CCN(C(=O)Nc5ccccc5)CC4)c3s2)cn1 [P-0627, 4-[6-(1-methylpyrazol-4-yl)thieno[3,2-d]pyrimidin-4-yl]-N-phenyl-piperazine-1-carboxamide]",1 to 10
4,"O=C(Nc1ccccc1)N1CCN(c2ncnc3[nH]ccc23)CC1 [P-0205, N-phenyl-4-(7H-pyrrolo[2,3-d]pyrimidin-4-yl)piperazine-1-carboxamide]",10 to 200
5,"COc1cc2ncnc(-c3ccc(NS(=O)(=O)C4CC4)cc3)c2cc1OC [P-0280, N-[4-(6,7-dimethoxyquinazolin-4-yl)phenyl]cyclopropanesulfonamide]",10 to 200
6,"O=S(=O)(NC1CCN(c2ncnc3[nH]ccc23)CC1)c1ccccc1 [P-0533, N-[1-(7H-pyrrolo[2,3-d]pyrimidin-4-yl)-4-piperidyl]benzenesulfonamide]",10 to 200
7,"O=C(NC1CCCC1)NC1CCN(c2ncnc3[nH]ccc23)CC1 [P-0526, 1-cyclopentyl-3-[1-(7H-pyrrolo[2,3-d]pyrimidin-4-yl)-4-piperidyl]urea]",10 to 200
8,"Fc1ccc(-c2cc3c(-c4ccncc4)ncnc3[nH]2)cc1 [P-0392, 6-(4-fluorophenyl)-4-(4-pyridyl)-7H-pyrrolo[2,3-d]pyrimidine]",0.0001 to 1
9,"CCCS(=O)(=O)N1CCN(c2ncnc3[nH]ccc23)CC1 [P-0199, 4-(4-propylsulfonylpiperazin-1-yl)-7H-pyrrolo[2,3-d]pyrimidine]",10 to 200
10,"CN(C)c1ccc(NC(=O)N2CCN(c3ncnc4[nH]ccc34)CC2)cc1 [P-0132, N-(4-dimethylaminophenyl)-4-(7H-pyrrolo[2,3-d]pyrimidin-4-yl)piperazine-1-carboxamide]",1 to 10
11,"C[C@H]1CN(c2ncnc3[nH]c(-c4ccncc4)cc23)CCN1C(=O)Nc1ccc(N(C)C)cc1 [P-0046, (2S)-N-(4-dimethylaminophenyl)-2-methyl-4-[6-(4-pyridyl)-7H-pyrrolo[2,3-d]pyrimidin-4-yl]piperazine-1-carboxamide]",1 to 10
12,"CCCC(=O)N1CCN(c2ncnc3[nH]ccc23)CC1 [P-0194, 1-[4-(7H-pyrrolo[2,3-d]pyrimidin-4-yl)piperazin-1-yl]butan-1-one]",10 to 200
13,"COc1cc(NC(=O)N2CCN(c3ncnc4[nH]cc(-c5ccccc5)c34)CC2)cc(OC)c1 [P-0216, N-(3,5-dimethoxyphenyl)-4-(5-phenyl-7H-pyrrolo[2,3-d]pyrimidin-4-yl)piperazine-1-carboxamide]",10 to 200
14,"O=C(c1ccc(Cl)cc1)c1cc2c(N3CCN(C(=O)NCc4ccc(F)cc4)CC3)ncnc2[nH]1 [P-0207, 4-[6-(4-chlorobenzoyl)-7H-pyrrolo[2,3-d]pyrimidin-4-yl]-N-[(4-fluorophenyl)methyl]piperazine-1-carboxamide]",10 to 200
15,"O=S(=O)(c1ccccc1)N1CCN(c2ncnc3[nH]ccc23)CC1 [P-0200, 4-[4-(benzenesulfonyl)piperazin-1-yl]-7H-pyrrolo[2,3-d]pyrimidine]",10 to 200
16,"COc1ccc(NC(=O)N2CCN(c3ncnc4[nH]ccc34)CC2)cc1OC [P-0173, N-(3,4-dimethoxyphenyl)-4-(7H-pyrrolo[2,3-d]pyrimidin-4-yl)piperazine-1-carboxamide]",10 to 200
17,"Cc1ccccc1C(=O)c1c[nH]c2ncnc(N3CCN(c4cc(NC5CC5)ncn4)CC3)c12 [P-0206, [4-[4-[6-(cyclopropylamino)pyrimidin-4-yl]piperazin-1-yl]-7H-pyrrolo[2,3-d]pyrimidin-5-yl]-(o-tolyl)methanone]",10 to 200
18,"O=C(Nc1ccccc1)c1cc2c(N3CCN(C(=O)NCc4ccc(F)cc4)CC3)ncnc2[nH]1 [P-0193, 4-[4-[(4-fluorophenyl)methylcarbamoyl]piperazin-1-yl]-N-phenyl-7H-pyrrolo[2,3-d]pyrimidine-6-carboxamide]",10 to 200
19,"Cc1ccc(-c2cc3c(N4CCC(NS(=O)(=O)c5ccc(OC(F)(F)F)cc5)CC4)ncnc3[nH]2)cn1 [P-0459, N-[1-[6-(6-methyl-3-pyridyl)-7H-pyrrolo[2,3-d]pyrimidin-4-yl]-4-piperidyl]-4-(trifluoromethoxy)benzenesulfonamide]",10 to 200
20,"CS(=O)(=O)Nc1cc(F)c(-c2ncnc3[nH]c(-c4ccc(F)cc4)cc23)cc1F [P-0356, N-[2,5-difluoro-4-[6-(4-fluorophenyl)-7H-pyrrolo[2,3-d]pyrimidin-4-yl]phenyl]methanesulfonamide]",0.0001 to 1
21,"COc1ccc(NC(=O)N2CCN(c3ncnc4[nH]c(-c5ccccc5)cc34)CC2)cc1 [P-0240, N-(4-methoxyphenyl)-4-(6-phenyl-7H-pyrrolo[2,3-d]pyrimidin-4-yl)piperazine-1-carboxamide]",10 to 200
22,"N#Cc1ccc(-c2cc3c(N4CCC(NS(=O)(=O)c5ccc(OC(F)(F)F)cc5)CC4)ncnc3[nH]2)cc1 [P-0464, N-[1-[6-(4-cyanophenyl)-7H-pyrrolo[2,3-d]pyrimidin-4-yl]-4-piperidyl]-4-(trifluoromethoxy)benzenesulfonamide]",10 to 200
23,"O=C(Nc1ccccc1)NC1CCN(c2ncnc3[nH]ccc23)CC1 [P-0538, 1-phenyl-3-[1-(7H-pyrrolo[2,3-d]pyrimidin-4-yl)-4-piperidyl]urea]",10 to 200
24,"Cc1cc2c(-c3ccc(NS(=O)(=O)C4CC4)cc3)ncnc2[nH]1 [P-0377, N-[4-(6-methyl-7H-pyrrolo[2,3-d]pyrimidin-4-yl)phenyl]cyclopropanesulfonamide]",10 to 200
25,"CS(=O)(=O)NC1CCN(c2ncnc3[nH]c(C#CC4CC4)cc23)CC1 [P-0472, N-[1-[6-(2-cyclopropylethynyl)-7H-pyrrolo[2,3-d]pyrimidin-4-yl]-4-piperidyl]methanesulfonamide]",10 to 200
26,"Fc1ccc(-c2cc3c(-c4cccnc4C(F)(F)F)ncnc3[nH]2)cc1 [P-0374, 6-(4-fluorophenyl)-4-[2-(trifluoromethyl)-3-pyridyl]-7H-pyrrolo[2,3-d]pyrimidine]",10 to 200
27,"O=C(NCc1ccc(C(F)(F)F)nc1)N1CCN(c2ncnc3[nH]c(-c4ccc(Cl)cc4)cc23)CC1 [P-0180, 4-[6-(4-chlorophenyl)-7H-pyrrolo[2,3-d]pyrimidin-4-yl]-N-[[6-(trifluoromethyl)-3-pyridyl]methyl]piperazine-1-carboxamide]",10 to 200
28,"C[C@H](NC(=O)N1CCN(c2ncnc3ccsc23)CC1(C)C)c1cccc(Cl)c1 [P-0682, N-[(1S)-1-(3-chlorophenyl)ethyl]-2,2-dimethyl-4-thieno[3,2-d]pyrimidin-4-yl-piperazine-1-carboxamide]",10 to 200
29,"COc1cc2ncnc(-c3ccc(S(N)(=O)=O)cc3)c2cc1OC [P-0278, 4-(6,7-dimethoxyquinazolin-4-yl)benzenesulfonamide]",10 to 200
30,"CCCCNS(=O)(=O)c1ccc(-c2ncnc3[nH]c(-c4ccc(F)cc4)cc23)cc1 [P-0421, N-butyl-4-[6-(4-fluorophenyl)-7H-pyrrolo[2,3-d]pyrimidin-4-yl]benzenesulfonamide]",10 to 200
